The results in this text go back to patent US6657060B2, “Pyrimidine derivatives” (Hoffman-La Roche Inc., priority 2000, dated 2003).

Each structure is given as a SMILES string.

What is called IC50 is the point on the concentration scale where inhibition reaches its midpoint.

For the assay, the target named is T1, recombinant mouse NPY5-receptor (mNPY5) (Mus musculus, UniProt O70342).
T1 construct: The full-length cDNA encoding the mouse NPY5 (mNPY5) receptor was amplified from mouse brain cDNA; expressed in transfected cells; membranes
T1 sequence (O70342 1-466): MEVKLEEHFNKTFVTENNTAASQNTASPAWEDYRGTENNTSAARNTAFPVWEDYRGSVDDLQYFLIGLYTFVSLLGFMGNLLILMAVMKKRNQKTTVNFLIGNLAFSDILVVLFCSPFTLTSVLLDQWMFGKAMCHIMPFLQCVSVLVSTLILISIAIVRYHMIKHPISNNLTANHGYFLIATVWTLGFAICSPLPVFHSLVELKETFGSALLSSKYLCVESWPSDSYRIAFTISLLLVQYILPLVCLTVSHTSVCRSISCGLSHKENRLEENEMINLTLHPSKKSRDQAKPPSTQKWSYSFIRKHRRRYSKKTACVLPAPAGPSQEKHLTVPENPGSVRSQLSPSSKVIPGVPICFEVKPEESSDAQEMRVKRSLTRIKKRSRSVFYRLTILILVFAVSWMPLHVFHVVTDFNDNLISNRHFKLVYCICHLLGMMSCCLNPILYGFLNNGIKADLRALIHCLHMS
Description: Radioligand competition binding. The conditions noted are these: membranes of HEK293 cells expressing mNPY5; 100 pM [125I]labelled peptide YY (PYY); 1 h at 22° C. From the text: The full-length cDNA encoding the mouse NPY5 (mNPY5) receptor was amplified from mouse brain cDNA using specific primers, designed based on the published sequence, and Pfu DNA-Polymerase (Stratagene). The amplification product was subcloned into the mammalian expression vector pcDNA3 using Eco RI and XhoI restriction sites. Positive clones were sequenced and one clone, encoding the published sequence was selected for generation of stable cell clones.
Human embryonic kidney 293 (HEK293) cells were transfected with 10 μg mNPY5 DNA using the lipofectamine reagent (Gibco BRL) according to the manufacturer's instruction. Two days after transfection, geneticin selection (1 mg/ml) was initiated and several stable clones were isolated. One clone was further used for pharmacological characterization.
Human embryonic kidney 293 cells (HEK293), expressing recombinant mouse NPY5-receptor (mNPY5) were broken by three freeze/thawing cycles in hypotonic Tris buffer (5 mM, pH 7.4, 1 mM MgCl2), homogenized and centrifuged at 72,000×g for 15 min. The pellet was washed twice with 75 mM Tris buffer, pH 7.4, containing 25 mM MgCl2 and 250 mM sucrose, 0.1 mM phenylmethylsulfonylfluoride and 0.1 mM 1,10-pheneanthrolin, resuspended in the same buffer and stored in aliquots at −80° C. Protein was determined according to the method of Lowry using bovine serum albumine (BSA) as a standard. […]
(In a radioligand displacement assay an active substance lowers the binding of a labelled ligand.)

In the case of `Cc1cc(N2CCCC2)nc(/C=C/c2ccc(F)cc2F)n1` [Compound 43, (E)-2-[2-(2,4-difluoro-phenyl)-vinyl]-4-methyl-6-pyrrolidin-1-yl-pyrimidine], the IC50 is 30 nM.

As for `Cc1cc(N2CCCC2)nc(/C=C/c2cccc(C#N)c2)n1` [Compound 20, (E)-3-[2-(4-methyl-6-pyrrolidin-1-yl-pyrimidin-2-yl)-vinyl]-benzonitrile], the half-maximal inhibitory concentration (IC50) was 18 nM.
